In experiment [1] the target is T1, WRN [UniPro: Q14191 (WRN_HUMAN), N500-C946] (Homo sapiens (Human), UniProt Q14191). The experiment in a line: WRN unwinding assay (FORKF DNA, fluorescence). Format: biochemical. The conditions noted are these: Table 14.
Experiment [2] has as its target T1, WRN [UniPro: Q14191 (WRN_HUMAN), N500-C946]. The experiment can be described thus: WRN ATPase assay (ADP-Glo). The note with it: WRN enzymatic activity assay. The class given is biochemical.

T1 sequence (Q14191 500-946): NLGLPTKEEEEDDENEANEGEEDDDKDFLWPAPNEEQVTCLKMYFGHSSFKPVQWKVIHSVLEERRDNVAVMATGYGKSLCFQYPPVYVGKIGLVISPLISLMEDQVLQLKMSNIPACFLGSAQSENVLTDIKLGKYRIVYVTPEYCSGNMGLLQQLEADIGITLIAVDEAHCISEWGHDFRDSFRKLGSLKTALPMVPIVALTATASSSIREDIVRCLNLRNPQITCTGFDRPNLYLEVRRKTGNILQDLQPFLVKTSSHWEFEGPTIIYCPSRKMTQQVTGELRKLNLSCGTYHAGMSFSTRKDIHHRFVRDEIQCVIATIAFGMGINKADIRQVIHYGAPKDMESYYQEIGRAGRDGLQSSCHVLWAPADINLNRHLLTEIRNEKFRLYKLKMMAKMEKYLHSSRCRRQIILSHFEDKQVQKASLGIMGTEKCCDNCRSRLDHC

With `CCc1c(N2CCN(C(=O)C(=O)NOCc3ccccc3)CC2)c(=O)n2nc(C3=CCOCC3)nc2n1CC(=O)Nc1ccc(C(F)(F)F)cc1Cl` [Example 337, N-(Benzyloxy)-2-(4-(4-(2-((2-chloro-4-(trifluoromethyl)phenyl)amino)-2-oxoethyl)-2-(3,6-dihydro-2H-pyran-4-yl)-5-ethyl-7-oxo-4,7-dihydro-[1,2,4]triazolo[1,5-a]pyrimidin-6-yl)piperazin-1-yl)-2-oxoacetamide], the half-maximal inhibitory concentration (IC50) in experiment [1] and in experiment [2] was below 100 nM throughout.
For `CCc1c(N2CCN(C(=O)CNC(=O)CC3CCCO3)CC2)c(=O)n2nc(C3=CCOCC3)nc2n1CC(=O)Nc1ccc(C(F)(F)F)cc1Cl` (centres unmarked) [Example 338, N-(2-Chloro-4-(trifluoromethyl)phenyl)-2-(2-(3,6-dihydro-2H-pyran-4-yl)-5-ethyl-7-oxo-6-(4-((2-(tetrahydrofuran-2-yl)acetyl)glycyl)piperazin-1-yl)-[1,2,4]triazolo[1,5-a]pyrimidin-4(7H)-yl)acetamide], the 50% inhibitory concentration (IC50) in experiment [1] and in experiment [2] was below 100 nM each time.
Turning to `CCc1c(N2CCN(C(=O)C(=O)Nc3ccncn3)CC2)c(=O)n2nc(C3=CCOCC3)nc2n1CC(=O)Nc1ccc(C(F)(F)F)cc1F` [Example 340, 2-(4-(2-(3,6-Dihydro-2H-pyran-4-yl)-5-ethyl-4-(2-((2-fluoro-4-(trifluoromethyl)phenyl)amino)-2-oxoethyl)-7-oxo-4,7-dihydro-[1,2,4]triazolo[1,5-a]pyrimidin-6-yl)piperazin-1-yl)-2-oxo-N-(pyrimidin-4-yl)acetamide], the concentration for half-maximal inhibition (IC50) in experiment [1] and in experiment [2] was 100 to 1000 nM each time.
Turning to `CCc1c(N2CCN(C(=O)C(=O)Nc3ccno3)CC2)c(=O)n2nc(C3=CCOCC3)nc2n1CC(=O)Nc1ccc(C(F)(F)F)cc1F` [Example 341, 2-(4-(2-(3,6-Dihydro-2H-pyran-4-yl)-5-ethyl-4-(2-((2-fluoro-4-(trifluoromethyl)phenyl)amino)-2-oxoethyl)-7-oxo-4,7-dihydro-[1,2,4]triazolo[1,5-a]pyrimidin-6-yl)piperazin-1-yl)-N-(isoxazol-5-yl)-2-oxoacetamide], the concentration for half-maximal inhibition (IC50) in experiment [1] and in experiment [2] was below 100 nM throughout.
As to `CCc1c(N2CCN(C(=O)C(=O)Nc3nncs3)CC2)c(=O)n2nc(C3=CCOCC3)nc2n1CC(=O)Nc1ccc(C(F)(F)F)cc1F` [Example 342, 2-(4-(2-(3,6-Dihydro-2H-pyran-4-yl)-5-ethyl-4-(2-((2-fluoro-4-(trifluoromethyl)phenyl)amino)-2-oxoethyl)-7-oxo-4,7-dihydro-[1,2,4]triazolo[1,5-a]pyrimidin-6-yl)piperazin-1-yl)-2-oxo-N-(1,3,4-thiadiazol-2-yl)acetamide], the IC50 in experiment [1] and in experiment [2] was below 100 nM throughout.
Regarding `CCc1c(N2CCN(C(=O)CNC(=O)c3ccccc3F)CC2)c(=O)n2nc(C3=CCOCC3)cc2n1CC(=O)Nc1ccc(C(F)(F)F)cc1Cl` [Example 343, N-(2-(4-(4-(2-((2-Chloro-4-(trifluoromethyl)phenyl)amino)-2-oxoethyl)-2-(3,6-dihydro-2H-pyran-4-yl)-5-ethyl-7-oxo-4,7-dihydropyrazolo[1,5-a]pyrimidin-6-yl)piperazin-1-yl)-2-oxoethyl)-2-fluorobenzamide], the IC50 in experiment [1] and in experiment [2] was below 100 nM in each case.
As for `CCc1c(N2CCN(C(=O)CNC(=O)c3ccccc3F)CC2)c(=O)n2nc(N3CCOCC3)cc2n1CC(=O)Nc1ccc(C(F)(F)F)cc1Cl` [Example 344, N-(2-(4-(4-(2-((2-chloro-4-(trifluoromethyl)phenyl)amino)-2-oxoethyl)-5-ethyl-2-morpholino-7-oxo-4,7-dihydropyrazolo[1,5-a]pyrimidin-6-yl)piperazin-1-yl)-2-oxoethyl)-2-fluorobenzamide], the IC50 in experiment [1] and in experiment [2] was 100 to 1000 nM throughout.
Turning to `CCc1c(N2CCN(C(=O)C(F)N3C(=O)c4ccccc4C3=O)CC2)c(=O)n2nc(C3=CCOCC3)nc2n1CC(=O)Nc1ccc(C(F)(F)F)cc1Cl` (centres unmarked) [Example 345, N-(2-chloro-4-(trifluoromethyl)phenyl)-2-(2-(3,6-dihydro-2H-pyran-4-yl)-6-(4-(2-(1,3-dioxoisoindolin-2-yl)-2-fluoroacetyl)piperazin-1-yl)-5-ethyl-7-oxo-[1,2,4]triazolo[1,5-a]pyrimidin-4(7H)-yl)acetamide], the IC50 in experiment [1] and in experiment [2] was 100 to 1000 nM throughout.
Take `CCc1c(N2CCN(C(=O)CNC(=O)c3nc(C)cs3)CC2)c(=O)n2nc(C3=CCOCC3)nc2n1CC(=O)Nc1ccc(C(F)(F)F)cc1Cl` [Example 346, N-(2-(4-(4-(2-((2-Chloro-4-(trifluoromethyl)phenyl)amino)-2-oxoethyl)-2-(3,6-dihydro-2H-pyran-4-yl)-5-ethyl-7-oxo-4,7-dihydro-[1,2,4]triazolo[1,5-a]pyrimidin-6-yl)piperazin-1-yl)-2-oxoethyl)-4-methylthiazole-2-carboxamide]: the half-inhibitory concentration (IC50) in experiment [1] and in experiment [2] was below 100 nM each time.
Regarding `CCc1c(N2CCN(C(=O)C(=O)Nc3nc(C)cs3)CC2)c(=O)n2nc(C3=CCOCC3)nc2n1CC(=O)Nc1ccc(C(F)(F)F)cc1Cl` [Example 347, 2-(4-(4-(2-((2-Chloro-4-(trifluoromethyl)phenyl)amino)-2-oxoethyl)-2-(3,6-dihydro-2H-pyran-4-yl)-5-ethyl-7-oxo-4,7-dihydro-[1,2,4]triazolo[1,5-a]pyrimidin-6-yl)piperazin-1-yl)-N-(4-methylthiazol-2-yl)-2-oxoacetamide], the IC50 in experiment [1] and in experiment [2] was below 100 nM each time.
With `CCc1c(N2CCN(C(=O)C(=O)Nc3cc(C)no3)CC2)c(=O)n2nc(C3=CCOCC3)nc2n1CC(=O)Nc1ccc(C(F)(F)F)cc1Cl` [Example 348, 2-(4-(4-(2-((2-Chloro-4-(trifluoromethyl)phenyl)amino)-2-oxoethyl)-2-(3,6-dihydro-2H-pyran-4-yl)-5-ethyl-7-oxo-4,7-dihydro-[1,2,4]triazolo[1,5-a]pyrimidin-6-yl)piperazin-1-yl)-N-(3-methylisoxazol-5-yl)-2-oxoacetamide], the IC50 in experiment [1] and in experiment [2] was below 100 nM in each case.
On to `CCc1c(N2CCN(C(=O)C(=O)Nc3cncs3)CC2)c(=O)n2nc(C3=CCOCC3)nc2n1CC(=O)Nc1ccc(C(F)(F)F)cc1F` [Example 349, 2-(4-(2-(3,6-Dihydro-2H-pyran-4-yl)-5-ethyl-4-(2-((2-fluoro-4-(trifluoromethyl)phenyl)amino)-2-oxoethyl)-7-oxo-4,7-dihydro-[1,2,4]triazolo[1,5-a]pyrimidin-6-yl)piperazin-1-yl)-2-oxo-N-(thiazol-5-yl)acetamide], for which the 50% inhibitory concentration (IC50) in experiment [1] and in experiment [2] was below 100 nM throughout.
As to `CCc1c(N2CCN(C(=O)C(=O)Nc3nc(C)cs3)CC2)c(=O)n2nc(C3=CCOCC3)nc2n1CC(=O)Nc1ccc(C(F)(F)F)cc1F` [Example 350, 2-(4-(2-(3,6-Dihydro-2H-pyran-4-yl)-5-ethyl-4-(2-((2-fluoro-4-(trifluoromethyl)phenyl)amino)-2-oxoethyl)-7-oxo-4,7-dihydro-[1,2,4]triazolo[1,5-a]pyrimidin-6-yl)piperazin-1-yl)-N-(4-methylthiazol-2-yl)-2-oxoacetamide], the IC50 in experiment [1] and in experiment [2] was below 100 nM in each case.

Values taken from patent US20260015358A1, “BICYCLIC DERIVATIVES, COMPOSITIONS AND USES THEREOF” (Danatlas Pharmaceuticals Co., Ltd., priority 2023, published 2026).
